Molecules are shown by their SMILES. Bounds are passed on as bounds.

One assay deals with BT-474. Description: cells. The format is functional, cell-based. Conditions: Homo sapiens, BT-474, 72 h.
Description: Antiproliferative activity against human BT474 cells overexpressing HER2 assessed as cell growth inhibition measured after 72 hrs by MTT assay
The term IC50 denotes the concentration needed to halve the response being measured. Low readings indicate inhibition by little substance, high ones a need for much substance. On to `CC1CCN(C/C=C/C(=O)N2CCCOc3cc4ncnc(Nc5ccc(OCc6cccc(F)c6)c(Cl)c5)c4cc32)CC1`, for which 990 nM corresponded to half-maximal inhibition (IC50).
On the same count and under the same terms, as for `O=C(/C=C/CN1CCOCC1)N1CCCOc2cc3ncnc(Nc4ccc(OCc5cccc(F)c5)c(Cl)c4)c3cc21`, the figure is greater than 10000 nM; as for `O=C(/C=C/Cn1ccnc1)N1CCOc2cc3ncnc(Nc4ccc(OCc5cccc(F)c5)c(Cl)c4)c3cc21`, 48 nM.
Take `CC1CCCCN1C/C=C/C(=O)N1CCOc2cc3ncnc(Nc4ccc(OCc5cccc(F)c5)c(Cl)c4)c3cc21` (stereo not given): the IC50 was 127 nM. This IC50 lies about 2.6-fold higher than the previous one.
`CN1CCN(C/C=C/C(=O)N2CCCOc3cc4ncnc(Nc5ccc(OCc6cccc(F)c6)c(Cl)c5)c4cc32)CC1` displayed an IC50 of 1700 nM.
On the same count and under the same terms, as for `CS(=O)(=O)CCNCc1ccc(-c2ccc3ncnc(Nc4ccc(OCc5cccc(F)c5)c(Cl)c4)c3c2)o1` [LAPATINIB], the figure is 37 nM; as for `CC1CCN(C/C=C/C(=O)N2CCOc3cc4ncnc(Nc5ccc(OCc6cccc(F)c6)c(Cl)c5)c4cc32)CC1`, 200 nM; as for `C#Cc1cccc(Nc2ncnc3cc(OCCOC)c(OCCOC)cc23)c1` [ERLOTINIB], greater than 10000 nM.
`O=C(/C=C/CN1CCCC1)N1CCCOc2cc3ncnc(Nc4ccc(OCc5cccc(F)c5)c(Cl)c4)c3cc21` came in with an IC50 of 172 nM.

For a further assay, the target named is Epidermal growth factor receptor (Homo sapiens, UniProt P00533).
Chain of Epidermal growth factor receptor (P00533 whole entry): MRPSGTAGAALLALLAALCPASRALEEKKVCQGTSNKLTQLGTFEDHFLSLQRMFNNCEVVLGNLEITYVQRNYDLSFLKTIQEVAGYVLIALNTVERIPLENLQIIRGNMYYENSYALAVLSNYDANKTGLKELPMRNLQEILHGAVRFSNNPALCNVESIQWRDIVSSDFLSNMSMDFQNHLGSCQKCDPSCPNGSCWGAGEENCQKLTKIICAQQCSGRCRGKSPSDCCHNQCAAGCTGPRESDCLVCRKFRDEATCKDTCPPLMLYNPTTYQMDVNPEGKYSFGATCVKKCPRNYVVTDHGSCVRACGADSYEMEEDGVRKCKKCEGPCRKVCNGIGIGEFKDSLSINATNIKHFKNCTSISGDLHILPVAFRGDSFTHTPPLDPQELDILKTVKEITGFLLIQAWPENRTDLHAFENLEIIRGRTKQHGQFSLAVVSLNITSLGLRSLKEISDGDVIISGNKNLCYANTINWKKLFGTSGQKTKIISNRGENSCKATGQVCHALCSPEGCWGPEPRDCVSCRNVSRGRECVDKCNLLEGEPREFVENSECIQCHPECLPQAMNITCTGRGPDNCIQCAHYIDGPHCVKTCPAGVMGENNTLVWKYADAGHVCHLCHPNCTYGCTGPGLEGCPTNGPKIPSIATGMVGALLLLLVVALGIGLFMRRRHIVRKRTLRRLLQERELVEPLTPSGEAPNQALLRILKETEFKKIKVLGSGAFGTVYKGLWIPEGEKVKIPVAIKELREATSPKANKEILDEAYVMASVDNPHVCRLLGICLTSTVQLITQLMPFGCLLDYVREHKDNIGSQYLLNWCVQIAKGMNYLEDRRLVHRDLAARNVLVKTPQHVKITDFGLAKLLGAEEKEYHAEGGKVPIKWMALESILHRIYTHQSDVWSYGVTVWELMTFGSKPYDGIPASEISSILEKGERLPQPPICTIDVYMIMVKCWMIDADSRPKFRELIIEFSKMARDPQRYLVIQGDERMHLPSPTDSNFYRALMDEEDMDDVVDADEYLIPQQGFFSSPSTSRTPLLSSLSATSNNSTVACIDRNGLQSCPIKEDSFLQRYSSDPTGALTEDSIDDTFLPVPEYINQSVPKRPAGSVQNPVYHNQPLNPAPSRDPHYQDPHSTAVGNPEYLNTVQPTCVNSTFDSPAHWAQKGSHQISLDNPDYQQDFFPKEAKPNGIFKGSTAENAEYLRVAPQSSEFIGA
Assay: not given
The format is cell-based, KB.
Settings: not given
Turning to `CC1CCN(C/C=C/C(=O)N2CCCOc3cc4ncnc(Nc5ccc(OCc6cccc(F)c6)c(Cl)c5)c4cc32)CC1`, the IC50 was 4870 nM.
Compound `O=C(/C=C/CN1CCOCC1)N1CCCOc2cc3ncnc(Nc4ccc(OCc5cccc(F)c5)c(Cl)c4)c3cc21` gave an IC50 greater than 10000 nM.
Compound `O=C(/C=C/Cn1ccnc1)N1CCOc2cc3ncnc(Nc4ccc(OCc5cccc(F)c5)c(Cl)c4)c3cc21` gave an IC50 of 120 nM.
As to `CC1CCCCN1C/C=C/C(=O)N1CCOc2cc3ncnc(Nc4ccc(OCc5cccc(F)c5)c(Cl)c4)c3cc21` (stereo not given), the IC50 was determined as 179 nM.
The compound `CN1CCN(C/C=C/C(=O)N2CCCOc3cc4ncnc(Nc5ccc(OCc6cccc(F)c6)c(Cl)c5)c4cc32)CC1` had an IC50 of 4870 nM.
In turn, `O=C(/C=C/CN1CCCC1)N1CCCOc2cc3ncnc(Nc4ccc(OCc5cccc(F)c5)c(Cl)c4)c3cc21` had an IC50 of 578 nM.

Another assay concerns NCI-H1975. Put plainly: cells. It counts as functional, cell-based. Conditions: Homo sapiens, NCI-H1975, 72 h.
Description: Antiproliferative activity against human NCI-H1975 cells harboring EGFR L858R/T790M mutant assessed as cell growth inhibition measured after 72 hrs by MTT assay
Regarding `CC1CCN(C/C=C/C(=O)N2CCCOc3cc4ncnc(Nc5ccc(OCc6cccc(F)c6)c(Cl)c5)c4cc32)CC1`, the IC50 is greater than 10000 nM.
`O=C(/C=C/CN1CCOCC1)N1CCCOc2cc3ncnc(Nc4ccc(OCc5cccc(F)c5)c(Cl)c4)c3cc21` yielded an IC50 greater than 10000 nM.
`O=C(/C=C/Cn1ccnc1)N1CCOc2cc3ncnc(Nc4ccc(OCc5cccc(F)c5)c(Cl)c4)c3cc21` gave a concentration for half-maximal inhibition (IC50) of 2000 nM.
In turn, `CC1CCCCN1C/C=C/C(=O)N1CCOc2cc3ncnc(Nc4ccc(OCc5cccc(F)c5)c(Cl)c4)c3cc21` (stereo not given) registered an IC50 of 2310 nM. The IC50 values of the last two compounds are within 1.5-fold of each other.
In turn, `CN1CCN(C/C=C/C(=O)N2CCCOc3cc4ncnc(Nc5ccc(OCc6cccc(F)c6)c(Cl)c5)c4cc32)CC1` returned an IC50 greater than 10000 nM.
In the case of `CS(=O)(=O)CCNCc1ccc(-c2ccc3ncnc(Nc4ccc(OCc5cccc(F)c5)c(Cl)c4)c3c2)o1` [LAPATINIB], half-maximal inhibition (IC50) was put at 7370 nM.
On the same count and under the same terms, for `CC1CCN(C/C=C/C(=O)N2CCOc3cc4ncnc(Nc5ccc(OCc6cccc(F)c6)c(Cl)c5)c4cc32)CC1` the value was 1220 nM; for `O=C(/C=C/CN1CCCC1)N1CCCOc2cc3ncnc(Nc4ccc(OCc5cccc(F)c5)c(Cl)c4)c3cc21`, greater than 10000 nM.

In a further assay the test system is NCI-N87. Description: cells. The format is functional, cell-based. Conditions: Homo sapiens, NCI-N87, 72 h.
Description: Antiproliferative activity against human NCI-N87 cells overexpressing HER2 assessed as cell growth inhibition measured after 72 hrs by MTT assay
Consider `CC1CCN(C/C=C/C(=O)N2CCCOc3cc4ncnc(Nc5ccc(OCc6cccc(F)c6)c(Cl)c5)c4cc32)CC1`, for which half-maximal inhibition (IC50) required 838 nM.
As to `O=C(/C=C/CN1CCOCC1)N1CCCOc2cc3ncnc(Nc4ccc(OCc5cccc(F)c5)c(Cl)c4)c3cc21`, the IC50 is greater than 10000 nM.
The compound `O=C(/C=C/Cn1ccnc1)N1CCOc2cc3ncnc(Nc4ccc(OCc5cccc(F)c5)c(Cl)c4)c3cc21` gave an IC50 of 23 nM.
On the same count and under the same terms, as for `CC1CCCCN1C/C=C/C(=O)N1CCOc2cc3ncnc(Nc4ccc(OCc5cccc(F)c5)c(Cl)c4)c3cc21` (stereo not given), the figure is 102 nM.
With `CN1CCN(C/C=C/C(=O)N2CCCOc3cc4ncnc(Nc5ccc(OCc6cccc(F)c6)c(Cl)c5)c4cc32)CC1`, it took 1840 nM to reach half-maximal inhibition (IC50).
Turning to `CS(=O)(=O)CCNCc1ccc(-c2ccc3ncnc(Nc4ccc(OCc5cccc(F)c5)c(Cl)c4)c3c2)o1` [LAPATINIB], the IC50 was found to be 53 nM.
Consider `CC1CCN(C/C=C/C(=O)N2CCOc3cc4ncnc(Nc5ccc(OCc6cccc(F)c6)c(Cl)c5)c4cc32)CC1`, for which it took 166 nM to reach half-maximal inhibition (IC50).
In the case of `C#Cc1cccc(Nc2ncnc3cc(OCCOC)c(OCCOC)cc23)c1` [ERLOTINIB], the IC50 is greater than 10000 nM.
In the case of `O=C(/C=C/CN1CCCC1)N1CCCOc2cc3ncnc(Nc4ccc(OCc5cccc(F)c5)c(Cl)c4)c3cc21`, inhibition was half-maximal at 109 nM (IC50).

The test system of another assay is A-431. Description: cells. It counts as functional, cell-based. Conditions: Homo sapiens, A-431, 72 h.
Description: Antiproliferative activity against human A431 cells overexpressing EGFR assessed as cell growth inhibition measured after 72 hrs by MTT assay
Regarding `CC1CCN(C/C=C/C(=O)N2CCCOc3cc4ncnc(Nc5ccc(OCc6cccc(F)c6)c(Cl)c5)c4cc32)CC1`, the 50% inhibitory concentration (IC50) stood at 2090 nM.
The same measure, in the same setting: as for `O=C(/C=C/CN1CCOCC1)N1CCCOc2cc3ncnc(Nc4ccc(OCc5cccc(F)c5)c(Cl)c4)c3cc21`, the figure is greater than 10000 nM.
Turning to `O=C(/C=C/Cn1ccnc1)N1CCOc2cc3ncnc(Nc4ccc(OCc5cccc(F)c5)c(Cl)c4)c3cc21`, half-maximal inhibition (IC50) was put at 2490 nM.
The compound `CC1CCCCN1C/C=C/C(=O)N1CCOc2cc3ncnc(Nc4ccc(OCc5cccc(F)c5)c(Cl)c4)c3cc21` (stereo not given) displayed an IC50 of 448 nM. This IC50 lies about 5.6-fold lower than the previous one.
On the same count and under the same terms, as for `CN1CCN(C/C=C/C(=O)N2CCCOc3cc4ncnc(Nc5ccc(OCc6cccc(F)c6)c(Cl)c5)c4cc32)CC1`, the figure is 8500 nM; as for `CS(=O)(=O)CCNCc1ccc(-c2ccc3ncnc(Nc4ccc(OCc5cccc(F)c5)c(Cl)c4)c3c2)o1` [LAPATINIB], 3590 nM.
On the same count and under the same terms, as for `CC1CCN(C/C=C/C(=O)N2CCOc3cc4ncnc(Nc5ccc(OCc6cccc(F)c6)c(Cl)c5)c4cc32)CC1`, the figure is 1120 nM.
As to `O=C(/C=C/CN1CCCC1)N1CCCOc2cc3ncnc(Nc4ccc(OCc5cccc(F)c5)c(Cl)c4)c3cc21`, the IC50 is 791 nM. The IC50 values of the last two compounds are within 1.5-fold of each other.

Another assay relates to Calu-3. Description: cells. The format is functional, cell-based. To be noted: Homo sapiens, Calu-3, 72 h.
Description: Antiproliferative activity against human Calu3 cells overexpressing HER2 assessed as cell growth inhibition measured after 72 hrs by MTT assay
In turn, `CC1CCN(C/C=C/C(=O)N2CCCOc3cc4ncnc(Nc5ccc(OCc6cccc(F)c6)c(Cl)c5)c4cc32)CC1` had an IC50 greater than 10000 nM.
In the case of `O=C(/C=C/CN1CCOCC1)N1CCCOc2cc3ncnc(Nc4ccc(OCc5cccc(F)c5)c(Cl)c4)c3cc21`, the IC50 is greater than 10000 nM.
With `CN1CCN(C/C=C/C(=O)N2CCCOc3cc4ncnc(Nc5ccc(OCc6cccc(F)c6)c(Cl)c5)c4cc32)CC1`, the IC50 is greater than 10000 nM.
For the compound `CS(=O)(=O)CCNCc1ccc(-c2ccc3ncnc(Nc4ccc(OCc5cccc(F)c5)c(Cl)c4)c3c2)o1` [LAPATINIB], the IC50 was found to be 216 nM.
As for `O=C(/C=C/CN1CCCC1)N1CCCOc2cc3ncnc(Nc4ccc(OCc5cccc(F)c5)c(Cl)c4)c3cc21`, the IC50 is greater than 10000 nM.
